Results as given in US9133168B2, “Pyrimidine derivatives, preparation thereof, and pharmaceutical use thereof as akt(pkb) phosphorylation inhibitors” (SANOFI, priority 2010, dated 2015).

Tested on: AKT protein phosphorylated on serine 473 (P-AKT-S473) in PC3 human prostate carcinoma cells
Test: pAKT expression in PC3 human prostate carcinoma cells, MSD Multi-spot Biomarker detection (Test A)
Format: cell-based
Conditions: Homo sapiens, PC-3, PC3 cells, 1 to 2 h incubation, P-AKT-S473, absolute IC50, mean of two independent experiments
How it was run: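 Lysate pAKT-S473 measured by electrochemiluminescent sandwich immunoassay; inhibition versus cell-free background and DMSO-only wells, IC50 averaged over two experiments.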

IC50 [nM] | SMILES
107 | C[C@H]1Cc2ccccc2N1C(=O)Cc1nc(N2CCOCC2)c(F)c(=O)n1C [Example 8a, 5-fluoro-3-methyl-2-{2-[(2S)-2-methyl-2,3-dihydro-1H-indol-1-yl]-2-oxoethyl}-6-(morpholin-4-yl)pyrimidin-4(3H)-one]
35 | Cn1c(CC(=O)N2CC(C)(C)c3c(Cl)cccc32)nc(N2CCOCC2)cc1=O [Example 4c, 2-[2-(4-chloro-3,3-dimethyl-2,3-dihydro-1H-indol-1-yl)-2-oxoethyl]-3-methyl-6-(morpholin-4-yl)pyrimidin-4(3H)-one]
14 | CC1(C)CN(C(=O)Cc2nc(N3CCOCC3)cc(=O)[nH]2)c2cccc(Cl)c21 [Example 5c, 2-[2-(4-chloro-3,3-dimethyl-2,3-dihydro-1H-indol-1-yl)-2-oxoethyl]-6-(morpholin-4-yl)pyrimidin-4(3H)-one]
12 | CC1CN(c2cc(=O)[nH]c(CC(=O)N3CCc4c(Cl)cccc43)n2)CCO1 (stereo not drawn) [Example 28b, 2-[2-(4-chloro-2,3-dihydroindol-1-yl)-2-oxoethyl]-6-(2-methylmorpholin-4-yl)-3H-pyrimidin-4-one]
221 | C[C@H]1Cc2ccccc2N1C(=O)Cc1nc(N2CCOCC2)c(F)c(=S)[nH]1 [Example 10e, 2-(5-fluoro-4-morpholin-4-yl-6-thioxo-1,6-dihydropyrimidin-2-yl)-1-((S)-2-methyl-2,3-dihydroindol-1-yl)ethanone]
38 | CC1Cc2c(Cl)cccc2N1C(=O)Cc1nc(N2CCOCC2)c(F)c(=O)[nH]1 (stereo not drawn) [Example 18a, 5-fluoro-2-[2-((+)-4-chloro-2-methyl-2,3-dihydroindol-1-yl)-2-oxoethyl]-6-morpholin-4-yl-3H-pyrimidin-4-one]
15 | C[C@H]1Cc2ccccc2N1C(=O)Cc1nc(N2CCOCC2)c(F)c(=O)[nH]1 [Example 5a, 5-fluoro-2-{2-[(2S)-2-methyl-2,3-dihydro-1H-indol-1-yl]-2-oxoethyl}-6-(morpholin-4-yl)pyrimidin-4(3H)-one]
1140 | O=C(Cc1nc(N2CCOCC2)c(F)c(=O)[nH]1)N1c2ccccc2C[C@@H]1CO [Example 38a, 5-Fluoro-2-[2-((+)-2-hydroxymethyl-2,3-dihydroindol-1-yl)-2-oxoethyl]-6-morpholin-4-yl-3H-pyrimidin-4-one]
2 | CC1Cc2c(ccc(F)c2Cl)N1C(=O)Cc1nc(N2CCOCC2)c(F)c(=O)[nH]1 (stereo not drawn) [Example 34a, 5-Fluoro-2-[2-(4-chloro-5-fluoro-2-methyl-2,3-dihydroindol-1-yl)-2-oxoethyl]-6-morpholin-4-yl-3H-pyrimidin-4-one]
29 | CC(C(=O)N1CCc2c(F)cccc21)c1nc(N2CCOCC2)cc(=O)[nH]1 (stereo not drawn) [Example 41c, 2-[1-(4-fluoro-2,3-dihydro-1H-indol-1-yl)-1-oxopropan-2-yl]-6-(morpholin-4-yl)pyrimidin-4(3H)-one]
53 | O=C(Cc1nc(N2CCOCC2)cc(=O)[nH]1)N1CCc2c(-c3cccnc3)cccc21 [Example 13d, 6-(morpholin-4-yl)-2-{2-oxo-2-[4-(pyridin-3-yl)-2,3-dihydro-1H-indol-1-yl]ethyl}pyrimidin-4(3H)-one]
140 | C[C@H]1Cc2ccccc2N1C(=O)Cc1nc(N2CCOCC2)c(Cl)c(=O)[nH]1 [Example 35a, 5-chloro-2-[2-((S)-2-methyl-2,3-dihydroindol-1-yl)-2-oxoethyl]-6-morpholin-4-yl-3H-pyrimidin-4-one]
66 | O=C(Cc1nc(N2CCOCC2)cc(=O)[nH]1)N1CCc2c(-c3ccccn3)cccc21 [Example 12d, 6-(morpholin-4-yl)-2-{2-oxo-2-[4-(pyridin-2-yl)-2,3-dihydro-1H-indol-1-yl]ethyl}pyrimidin-4(3H)-one]
11 | CC1Cc2c(ccc(F)c2F)N1C(=O)Cc1nc(N2CCOCC2)c(F)c(=S)[nH]1 (stereo not drawn) [Example 8e, 1-((+)-4,5-Difluoro-2-methyl-2,3-dihydroindol-1-yl)-2-(5-fluoro-4-morpholin-4-yl-6-thioxo-1,6-dihydropyrimidin-2-yl)ethanone]

Same assay, conditions: PC3 cells, 1 to 2 h incubation, P-AKT-S473, absolute IC50, mean of two independent experiments

IC50 [nM] | SMILES
483 | CC1Cc2c(Br)cccc2N1C(=O)Cc1nc(N2CCOCC2)c(F)c(=O)[nH]1 (single isomer, unassigned; (+)) [Example 16a, (+)-2-{2-[4-bromo-2-methyl-2,3-dihydro-1H-indol-1-yl]-2-oxoethyl}-5-fluoro-6-(morpholin-4-yl)pyrimidin-4(3H)-one]
1 | CC1Cc2c(ccc(F)c2F)N1C(=O)Cc1nc(N2CCOCC2)cc(=O)[nH]1 (single isomer, unassigned; (-)) [Example 18c, (−)-2-{2-[4,5-difluoro-2-methyl-2,3-dihydro-1H-indol-1-yl]-2-oxoethyl}-6-(morpholin-4-yl)pyrimidin-4(3H)-one]
21 | O=C(Cc1nc(N2CCOC(CF)C2)cc(=O)[nH]1)N1CCc2c(F)cccc21 (single isomer, unassigned; (+)) [Example 7b, (+)-2-[2-(4-fluoro-2,3-dihydroindol-1-yl)-2-oxoethyl]-6-(2-fluoromethylmorpholin-4-yl)-3H-pyrimidin-4-one]
5 | O=C(Cc1nc(N2CCOCC2)cc(=O)[nH]1)N1c2ccccc2CC1c1ccccc1 (single isomer, unassigned; (-)) [Example 25d, (−)-6-(morpholin-4-yl)-2-{2-oxo-2-[2-phenyl-2,3-dihydro-1H-indol-1-yl]ethyl}pyrimidin-4(3H)-one]
55 | CC1Cc2c(Cl)cccc2N1C(=O)Cc1nc(N2CCOCC2)cc(=O)n1C (single isomer, unassigned; (+)) [Example 33c, (+)-2-{2-[4-chloro-2-methyl-2,3-dihydro-1H-indol-1-yl]-2-oxoethyl}-3-methyl-6-(morpholin-4-yl)pyrimidin-4(3H)-one]
4 | CC1Cc2c(ccc(F)c2F)N1C(=O)Cc1nc(N2CCOCC2)cc(=O)[nH]1 (single isomer, unassigned; (+)) [Example 17c, (+)-2-{2-[4,5-difluoro-2-methyl-2,3-dihydro-1H-indol-1-yl]-2-oxoethyl}-6-(morpholin-4-yl)pyrimidin-4(3H)-one]
98 | CC1Cc2c(F)cccc2N1C(=O)Cc1nc(N2CCOCC2)c(F)c(=O)n1C (stereo not drawn) [Example 22a, 5-fluoro-2-[2-((+)-4-fluoro-2-methyl-2,3-dihydroindol-1-yl)-2-oxoethyl]-3-methyl-6-morpholin-4-yl-3H-pyrimidin-4-one]
2 | CC1Cc2c(cccc2C(F)(F)F)N1C(=O)Cc1nc(N2CCOCC2)cc(=O)[nH]1 (single isomer, unassigned; (-)) [Example 37d, (−)-2-{2-[2-methyl-4-(trifluoromethyl)-2,3-dihydro-1H-indol-1-yl]-2-oxoethyl}-6-(morpholin-4-yl)pyrimidin-4(3H)-one]
48 | O=C(Cc1nc(N2CCOCC2)cc(=O)[nH]1)N1c2ccccc2CC1C1CC1 (single isomer, unassigned; (+)) [Example 34d, (+)-2-[2-(2-cyclopropyl-2,3-dihydroindol-1-yl)-2-oxoethyl]-6-morpholin-4-yl-3H-pyrimidin-4-one]
3 | CC1Cc2c(Br)cccc2N1C(=O)Cc1nc(N2CCOCC2)cc(=O)[nH]1 (single isomer, unassigned; (-)) [Example 26c, (−)-2-{2-[4-bromo-2-methyl-2,3-dihydro-1H-indol-1-yl]-2-oxoethyl}-6-(morpholin-4-yl)pyrimidin-4(3H)-one]
